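Each compound was tested at five concentrations against cells in 96-well plates for 48 hours. Definition used: TGI = concentration required for complete inhibition of growth.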
Tests used:
Assay in all cases: NCI-60 cell line screen, 48 h
786-0 renal = system: 786-0 renal
A498 renal = system: A498 renal
A549 NSCLC = system: A549 NSCLC
ACHN renal = system: ACHN renal
CCRF-CEM leukemia = system: CCRF-CEM leukemia
COLO 205 colon = system: COLO 205 colon
DLD-1 colon = system: DLD-1 colon
DMS 114 small cell lung = system: DMS 114 small cell lung
EKVX NSCLC = system: EKVX NSCLC
HCC-2998 colon = system: HCC-2998 colon
HCT-116 colon = system: HCT-116 colon
HL-60(TB) leukemia = system: HL-60(TB) leukemia
HOP-18 NSCLC = system: HOP-18 NSCLC
HOP-62 NSCLC = system: HOP-62 NSCLC
HOP-92 NSCLC = system: HOP-92 NSCLC
HT29 colon = system: HT29 colon
IGROV1 ovarian = system: IGROV1 ovarian
K-562 leukemia = system: K-562 leukemia
KM12 colon = system: KM12 colon
KM20L2 colon = system: KM20L2 colon
LOX IMVI melanoma = system: LOX IMVI melanoma
LXFL 529 NSCLC = system: LXFL 529 NSCLC
M14 melanoma = system: M14 melanoma
M19-MEL melanoma = system: M19-MEL melanoma
MALME-3M melanoma = system: MALME-3M melanoma
MOLT-4 leukemia = system: MOLT-4 leukemia
NCI-H226 lung = system: NCI-H226 lung
NCI-H23 lung = system: NCI-H23 lung
NCI-H460 lung = system: NCI-H460 lung
NCI-H522 lung = system: NCI-H522 lung
OVCAR-3 ovarian = system: OVCAR-3 ovarian
OVCAR-4 ovarian = system: OVCAR-4 ovarian
OVCAR-8 ovarian = system: OVCAR-8 ovarian
RXF 393 renal = system: RXF 393 renal
SF-268 CNS = system: SF-268 CNS
SF-295 CNS = system: SF-295 CNS
SF-539 CNS = system: SF-539 CNS
SK-MEL-28 melanoma = system: SK-MEL-28 melanoma
SK-MEL-5 melanoma = system: SK-MEL-5 melanoma
SK-OV-3 ovarian = system: SK-OV-3 ovarian
SN12C renal = system: SN12C renal
SNB-19 CNS = system: SNB-19 CNS
SNB-75 CNS = system: SNB-75 CNS
SNB-78 CNS = system: SNB-78 CNS
SR leukemia = system: SR leukemia
SW-620 colon = system: SW-620 colon
TK-10 renal = system: TK-10 renal
U251 CNS = system: U251 CNS
UACC-257 melanoma = system: UACC-257 melanoma
UACC-62 melanoma = system: UACC-62 melanoma
UO-31 renal = system: UO-31 renal
XF 498 CNS = system: XF 498 CNS
CAKI-1 renal = system: CAKI-1 renal
HCT-15 colon = system: HCT-15 colon
OVCAR-5 ovarian = system: OVCAR-5 ovarian
RPMI-8226 leukemia = system: RPMI-8226 leukemia
SK-MEL-2 melanoma = system: SK-MEL-2 melanoma

Measured: TGI

O=C1CC2C(=O)N(Cc3ccccc3)C1C=C2S(=O)(=O)c1ccccc1 (stereo not given)
not listed: CAKI-1 renal | HCT-15 colon | OVCAR-5 ovarian | RPMI-8226 leukemia | SK-MEL-2 melanoma
> 100 µM: all other assays above

CC(C)(C=O)CC(C#N)/C(=N\NC(N)=O)C(=O)Nc1ccccc1C(N)=O (stereo not given)
not listed: COLO 205 colon | DLD-1 colon | DMS 114 small cell lung | HOP-18 NSCLC | RXF 393 renal | SNB-75 CNS
> 100 µM: all other assays above

O=S1OC2(c3ccccc3-c3ccccc32)c2ccccc21 (stereo not given)
not listed: HOP-92 NSCLC | SF-268 CNS | SNB-78 CNS | CAKI-1 renal | SK-MEL-2 melanoma
> 100 µM: all other assays above

— PubChem BioAssay (NCI)
